According to patent publication US9249131B2, “Modulators of ATP-binding cassette transporters” (Vertex Pharmaceuticals Incorporated, priority 2003, dated 2016):

Target: T1, ΔF508-CFTR (Homo sapiens, UniProt P13569, DEL508-508)
T1 construct: expressed in transfected cells; host or cells: NIH3T3 mouse fibroblasts stably expressing ΔF508-CFTR for the optical, whole-cell and single-channel assays; Fisher rat epithelial (FRT) cells for Ussing chamber follow-up
Assay: Assays for ΔF508-CFTR correction and potentiator properties (membrane potential optical and electrophysiological methods)
Assay type: cell-based
Details: CFTR modulation, % Efficacy
Summary of the method: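 NIH3T3 mouse fibroblasts stably expressing ΔF508-CFTR were used, with membrane potential read by DiSBAC2(3)/CC2-DMPE FRET on VIPR. Correctors: 16 h compound exposure at 37 °C, then activation with forskolin plus genistein in Cl⁻-free medium. Potentiators: cells held 24 h at 27 °C, compound added in Cl⁻-free medium, 2-10 μM forskolin 22 s later (final Cl⁻ 28 mM).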

T1 sequence (P13569 with tags, fused parts or gaps DEL508-508): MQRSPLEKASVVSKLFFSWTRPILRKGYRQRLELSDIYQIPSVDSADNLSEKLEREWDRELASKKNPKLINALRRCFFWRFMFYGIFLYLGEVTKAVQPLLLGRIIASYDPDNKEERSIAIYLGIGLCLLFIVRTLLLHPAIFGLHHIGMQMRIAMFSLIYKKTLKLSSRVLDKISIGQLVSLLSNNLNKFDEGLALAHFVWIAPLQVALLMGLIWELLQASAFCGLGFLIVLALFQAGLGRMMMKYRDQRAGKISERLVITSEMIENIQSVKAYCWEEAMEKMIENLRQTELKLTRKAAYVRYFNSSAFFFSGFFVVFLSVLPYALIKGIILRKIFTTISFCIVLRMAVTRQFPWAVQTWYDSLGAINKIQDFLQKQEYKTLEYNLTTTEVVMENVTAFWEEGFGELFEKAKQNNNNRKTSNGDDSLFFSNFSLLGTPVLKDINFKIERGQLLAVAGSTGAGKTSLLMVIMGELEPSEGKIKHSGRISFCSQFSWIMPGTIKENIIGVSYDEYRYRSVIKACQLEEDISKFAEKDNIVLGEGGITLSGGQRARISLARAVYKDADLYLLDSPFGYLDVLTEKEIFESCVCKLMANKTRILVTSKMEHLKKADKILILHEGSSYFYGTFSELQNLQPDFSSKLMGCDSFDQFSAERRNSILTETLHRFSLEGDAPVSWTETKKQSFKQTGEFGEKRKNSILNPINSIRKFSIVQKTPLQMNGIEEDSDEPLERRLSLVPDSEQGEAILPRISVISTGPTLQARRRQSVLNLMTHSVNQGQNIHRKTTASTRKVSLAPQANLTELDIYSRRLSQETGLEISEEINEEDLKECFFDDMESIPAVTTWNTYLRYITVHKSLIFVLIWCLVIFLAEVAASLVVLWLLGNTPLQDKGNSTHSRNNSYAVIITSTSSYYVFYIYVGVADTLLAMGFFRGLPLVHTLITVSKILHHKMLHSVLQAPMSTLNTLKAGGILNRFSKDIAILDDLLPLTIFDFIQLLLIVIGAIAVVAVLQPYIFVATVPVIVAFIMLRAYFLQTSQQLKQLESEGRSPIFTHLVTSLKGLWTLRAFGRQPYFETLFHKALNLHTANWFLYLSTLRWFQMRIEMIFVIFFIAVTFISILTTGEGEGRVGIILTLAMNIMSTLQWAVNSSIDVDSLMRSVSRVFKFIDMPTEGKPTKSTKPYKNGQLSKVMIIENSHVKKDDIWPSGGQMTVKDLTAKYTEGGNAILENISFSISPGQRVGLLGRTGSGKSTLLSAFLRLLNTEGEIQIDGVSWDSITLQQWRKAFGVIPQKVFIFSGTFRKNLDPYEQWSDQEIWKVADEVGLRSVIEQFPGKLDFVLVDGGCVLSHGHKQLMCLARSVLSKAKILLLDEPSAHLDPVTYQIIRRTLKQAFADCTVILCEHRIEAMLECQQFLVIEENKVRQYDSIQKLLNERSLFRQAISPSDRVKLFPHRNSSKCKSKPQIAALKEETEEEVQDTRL

Row | % Activity | SMILES
1 | ++ (“++” means between 25% to 100%) | O=C(Nc1ncc(-c2ccccc2)s1)c1cccc(Cl)c1 [compound 233]
2 | ++ (“++” means between 25% to 100%) | CCOC(C(=O)Nc1ncc(Cc2ccccc2Cl)s1)c1ccccc1 (stereo not drawn) [compound 234]
3 | ++ (“++” means between 25% to 100%) | O=C(Nc1ncc(Cc2ccccc2Cl)s1)C(c1ccccc1)n1cccn1 (stereo not drawn) [compound 235]
4 | +++ (“+++” means >100%) | COc1ccccc1Cc1cnc(NC(=O)C(C)(C)c2ccccc2)s1 [compound 237]
5 | +++ (“+++” means >100%) | CC(C)(C(=O)Nc1ncc(Cc2ccccc2Cl)s1)c1ccccc1 [compound 238]
6 | ++ (“++” means between 25% to 100%) | CCN(C)C(C(=O)Nc1ncc(Cc2ccccc2Cl)s1)c1ccccc1 (stereo not drawn) [compound 239]
7 | ++ (“++” means between 25% to 100%) | CN(C1CCCCC1)C(C(=O)Nc1ncc(Cc2ccccc2Cl)s1)c1ccccc1 (stereo not drawn) [compound 240]
8 | ++ (“++” means between 25% to 100%) | O=C(Nc1ncc(Cc2ccccc2Cl)s1)C(c1ccccc1)N1CCCC1 (stereo not drawn) [compound 241]
9 | +++ (“+++” means >100%) | CC1CCCN1C(C(=O)Nc1ncc(Cc2ccccc2Cl)s1)c1ccccc1 (stereo not drawn) [compound 242]
10 | +++ (“+++” means >100%) | CC1CCCN(C(C(=O)Nc2ncc(Cc3ccccc3Cl)s2)c2ccccc2)C1 (stereo not drawn) [compound 243]
11 | ++ (“++” means between 25% to 100%) | O=C(Nc1ncc(Cc2ccccc2Cl)s1)C(c1ccccc1)N1CCCC(CO)C1 (stereo not drawn) [compound 244]
12 | ++ (“++” means between 25% to 100%) | CCOC(=O)C1CCCN(C(C(=O)Nc2ncc(Cc3ccccc3Cl)s2)c2ccccc2)C1 (stereo not drawn) [compound 245]
13 | ++ (“++” means between 25% to 100%) | CC1CCN(C(C(=O)Nc2ncc(Cc3ccccc3Cl)s2)c2ccccc2)CC1 (stereo not drawn) [compound 246]
14 | +++ (“+++” means >100%) | CCOC(=O)C1CCN(C(C(=O)Nc2ncc(Cc3ccccc3Cl)s2)c2ccccc2)CC1 (stereo not drawn) [compound 247]
15 | ++ (“++” means between 25% to 100%) | O=C(Nc1ncc(Cc2ccccc2Cl)s1)C(c1ccccc1)N1CCC(O)CC1 (stereo not drawn) [compound 248]
16 | ++ (“++” means between 25% to 100%) | O=C(Nc1ncc(Cc2ccccc2Cl)s1)C(c1ccccc1)N1CCN(c2ncccn2)CC1 (stereo not drawn) [compound 249]
17 | ++ (“++” means between 25% to 100%) | O=C(Nc1ncc(Cc2ccccc2Cl)s1)C(NC1CCCC1)c1ccccc1 (stereo not drawn) [compound 250]
18 | ++ (“++” means between 25% to 100%) | CCC(Nc1ccccc1)C(=O)Nc1ncc(Cc2ccccc2Cl)s1 (stereo not drawn) [compound 251]
19 | ++ (“++” means between 25% to 100%) | CCC(Oc1ccccc1)C(=O)Nc1ncc(Cc2ccccc2Cl)s1 (stereo not drawn) [compound 252]
20 | ++ (“++” means between 25% to 100%) | CCOC(=O)C1CCCCN1C(C(=O)Nc1ncc(Cc2ccccc2Cl)s1)c1ccccc1 (stereo not drawn) [compound 253]
21 | ++ (“++” means between 25% to 100%) | CN(Cc1ccccc1)C(C(=O)Nc1ncc(Cc2ccccc2Cl)s1)c1ccccc1 (stereo not drawn) [compound 254]
22 | ++ (“++” means between 25% to 100%) | CCC(C(=O)Nc1ncc(Cc2ccccc2Cl)s1)c1cccnc1 (stereo not drawn) [compound 255]
23 | ++ (“++” means between 25% to 100%) | N#Cc1ccccc1Cc1cnc(NC(=O)C(c2ccccc2)C2CCCCC2)s1 (stereo not drawn) [compound 256]
24 | ++ (“++” means between 25% to 100%) | CC(C(=O)Nc1ncc(Cc2ccccc2C#N)s1)c1ccccc1 (stereo not drawn) [compound 257]
25 | ++ (“++” means between 25% to 100%) | CCC(C(=O)Nc1ncc(Cc2ccccc2C#N)s1)c1ccccc1 (stereo not drawn) [compound 258]
26 | ++ (“++” means between 25% to 100%) | CCC(C)C(C(=O)Nc1ncc(Cc2ccccc2C#N)s1)c1ccccc1 (stereo not drawn) [compound 259]
27 | ++ (“++” means between 25% to 100%) | N#Cc1ccccc1Cc1cnc(NC(=O)C(c2ccccc2)C2CCCC2)s1 (stereo not drawn) [compound 260]
28 | ++ (“++” means between 25% to 100%) | CC(C)C(C(=O)Nc1ncc(Cc2ccccc2C#N)s1)c1ccccc1 (stereo not drawn) [compound 261]
29 | ++ (“++” means between 25% to 100%) | CCC(C(=O)Nc1ncc(C(=O)c2ccccc2Cl)s1)c1ccccc1 (stereo not drawn) [compound 262]
30 | ++ (“++” means between 25% to 100%) | CCC(C(=O)Nc1ncc(C(O)c2ccccc2Cl)s1)c1ccccc1 (stereo not drawn) [compound 263]

Same assay, conditions: CFTR modulation, tested using the above methods

Row | EC50 | SMILES
31 | 25 to 60 µM | O=C(Nc1ncc(-c2ccccc2)s1)c1cccc(Cl)c1 [compound 233]
32 | 10 to 25 µM | CCOC(C(=O)Nc1ncc(Cc2ccccc2Cl)s1)c1ccccc1 (stereo not drawn) [compound 234]
33 | < 10 µM | O=C(Nc1ncc(Cc2ccccc2Cl)s1)C(c1ccccc1)n1cccn1 (stereo not drawn) [compound 235]
34 | < 10 µM | COc1ccccc1Cc1cnc(NC(=O)C(C)(C)c2ccccc2)s1 [compound 237]
35 | < 10 µM | CC(C)(C(=O)Nc1ncc(Cc2ccccc2Cl)s1)c1ccccc1 [compound 238]
36 | < 10 µM | CCN(C)C(C(=O)Nc1ncc(Cc2ccccc2Cl)s1)c1ccccc1 (stereo not drawn) [compound 239]
37 | < 10 µM | CN(C1CCCCC1)C(C(=O)Nc1ncc(Cc2ccccc2Cl)s1)c1ccccc1 (stereo not drawn) [compound 240]
38 | < 10 µM | O=C(Nc1ncc(Cc2ccccc2Cl)s1)C(c1ccccc1)N1CCCC1 (stereo not drawn) [compound 241]
39 | < 10 µM | CC1CCCN1C(C(=O)Nc1ncc(Cc2ccccc2Cl)s1)c1ccccc1 (stereo not drawn) [compound 242]
40 | < 10 µM | CC1CCCN(C(C(=O)Nc2ncc(Cc3ccccc3Cl)s2)c2ccccc2)C1 (stereo not drawn) [compound 243]
41 | < 10 µM | O=C(Nc1ncc(Cc2ccccc2Cl)s1)C(c1ccccc1)N1CCCC(CO)C1 (stereo not drawn) [compound 244]
42 | < 10 µM | CCOC(=O)C1CCCN(C(C(=O)Nc2ncc(Cc3ccccc3Cl)s2)c2ccccc2)C1 (stereo not drawn) [compound 245]
43 | < 10 µM | CC1CCN(C(C(=O)Nc2ncc(Cc3ccccc3Cl)s2)c2ccccc2)CC1 (stereo not drawn) [compound 246]
44 | < 10 µM | CCOC(=O)C1CCN(C(C(=O)Nc2ncc(Cc3ccccc3Cl)s2)c2ccccc2)CC1 (stereo not drawn) [compound 247]
45 | < 10 µM | O=C(Nc1ncc(Cc2ccccc2Cl)s1)C(c1ccccc1)N1CCC(O)CC1 (stereo not drawn) [compound 248]
46 | < 10 µM | O=C(Nc1ncc(Cc2ccccc2Cl)s1)C(c1ccccc1)N1CCN(c2ncccn2)CC1 (stereo not drawn) [compound 249]
47 | < 10 µM | O=C(Nc1ncc(Cc2ccccc2Cl)s1)C(NC1CCCC1)c1ccccc1 (stereo not drawn) [compound 250]
48 | < 10 µM | CCC(Nc1ccccc1)C(=O)Nc1ncc(Cc2ccccc2Cl)s1 (stereo not drawn) [compound 251]
49 | 10 to 25 µM | CCC(Oc1ccccc1)C(=O)Nc1ncc(Cc2ccccc2Cl)s1 (stereo not drawn) [compound 252]
50 | 25 to 60 µM | CCOC(=O)C1CCCCN1C(C(=O)Nc1ncc(Cc2ccccc2Cl)s1)c1ccccc1 (stereo not drawn) [compound 253]
51 | < 10 µM | CN(Cc1ccccc1)C(C(=O)Nc1ncc(Cc2ccccc2Cl)s1)c1ccccc1 (stereo not drawn) [compound 254]
52 | < 10 µM | CCC(C(=O)Nc1ncc(Cc2ccccc2Cl)s1)c1cccnc1 (stereo not drawn) [compound 255]
53 | < 10 µM | N#Cc1ccccc1Cc1cnc(NC(=O)C(c2ccccc2)C2CCCCC2)s1 (stereo not drawn) [compound 256]
54 | 25 to 60 µM | CC(C(=O)Nc1ncc(Cc2ccccc2C#N)s1)c1ccccc1 (stereo not drawn) [compound 257]
55 | 10 to 25 µM | CCC(C(=O)Nc1ncc(Cc2ccccc2C#N)s1)c1ccccc1 (stereo not drawn) [compound 258]
56 | < 10 µM | CCC(C)C(C(=O)Nc1ncc(Cc2ccccc2C#N)s1)c1ccccc1 (stereo not drawn) [compound 259]
57 | < 10 µM | N#Cc1ccccc1Cc1cnc(NC(=O)C(c2ccccc2)C2CCCC2)s1 (stereo not drawn) [compound 260]
58 | < 10 µM | CC(C)C(C(=O)Nc1ncc(Cc2ccccc2C#N)s1)c1ccccc1 (stereo not drawn) [compound 261]
59 | 25 to 60 µM | CCC(C(=O)Nc1ncc(C(=O)c2ccccc2Cl)s1)c1ccccc1 (stereo not drawn) [compound 262]
60 | < 10 µM | CCC(C(=O)Nc1ncc(C(O)c2ccccc2Cl)s1)c1ccccc1 (stereo not drawn) [compound 263]
